Experiment: Phase transition temperature (differential thermal analysis)
Type: physicochemical
Conditions: single phospholipid
Experimental: Phase transition temperature was determined by differential thermal analysis.

Row | phase transition temperature (found value) of phospholipid [°C] | Substance
1 | 44.0 | steroylpalmitoylphosphitdylcholine [SPPC]
2 | 47.4 | palmitoylstearoylphosphitadylcholine [PSPC]

— patent US5000959A, “Liposome composition and production thereof” (Takeda Chemical Industries, Ltd., priority 1989, dated 1991)
